Patent US9932333B2, “Benzothiazole compound and medicine containing same” (JAPAN SCIENCE AND TECHNOLOGY AGENCY, priority 2014, dated 2018)
One block for each compound: values may come before it. Square brackets hold non-standard residues; d marks the D form. Peptide text beside a SMILES is read from it. * marks the point of attachment. X1 = C[n+]1c(-c2ccc3c(c2)CCCN3CCCCCC(=O)*)sc2cc(Br)ccc21; dBip = N[C@H](Cc1ccc(-c2ccccc2)cc1)C(=O)O

Legend:
Aβ1-42 oligomers [1] = molecular target: T1, Aβ1-42 oligomers (Homo sapiens, UniProt P05067); assay: Aggregability of oxygenized Aβ1-42 oligomer (Nile Red, atomic force microscopy); assay type: biochemical; conditions: compared with native
T1 sequence (P05067 672-713 limits assumed): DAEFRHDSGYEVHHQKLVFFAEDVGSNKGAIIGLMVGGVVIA
Protocol: (4) Compound (1a) (4 μM) was added to each of solutions containing two types of Aβ1-42 oligomers (0.5 μM) prepared by the incubation of Aβ1-42 (20 μM) in a phosphate buffer solution (10 mM, pH 7.4) at 0° C. and room temperature, respectively, for 24 hours, and the mixture was incubated at room temperature for 1 hour under irradiation with LED (wavelength: 500 nm). Then, each solution was incubated at 37° C., and Nile Red was added thereto, followed by the measurement of its fluorescence intensity. The sample incubated for 6 hours was also analyzed for its shape by atomic force microscopy. A non-oxygenized Aβ1-42 oligomer (native) was prepared without light irradiation.

angiotensin IV [2] = molecular target: T2, angiotensin IV (Homo sapiens, UniProt P01019); assay: Oxidation reaction of angiotensin IV (Example 3); assay type: biochemical; conditions: light irradiation 1.5 hours, neutral buffer, 37° C.
Source text: (§1) Then, the reaction was monitored with a mass spectrometer (MALDI-TOF MS) or LC/MS (ESI-Q).

Aβ1-42 [3] = molecular target: T3, Aβ1-42 (Homo sapiens, UniProt P05067); assay: Oxidation reaction of Aβ1-42 under LED irradiation (Example 3); assay type: biochemical
T3 sequence (P05067 672-713 limits assumed): as above
Protocol: as §1
(§2) The amino acid analysis of oxidized Aβ1-42 and oxidized amylin (carried out by Peptide Institute, Inc.) was conducted. The oxidized Aβ1-42 and the oxidized amylin were enzymatically digested with endopeptidase Lys-C and chymotrypsin, respectively, and the obtained digests were analyzed with a mass spectrometer (MALD-TOF MS) and LC/MS/MS (ESI-Q-TOF).

Aβ1-42 [4] = molecular target: T3, Aβ1-42; assay: Oxygenation ratio of aggregated to non-aggregated Aβ1-42 (Example 8); assay type: biochemical; conditions: 20.0 mmol %, pH 7.4, room temperature, light 10 minutes
Protocol: (§3) Then, the reaction was monitored with a mass spectrometer (MALDI-TOF MS).
(§4) Each oxygenation ratio was calculated according to (Intensity ratio of oxygenation of aggregated Aβ1-42)/(Intensity ratio of oxygenation of non-aggregated Aβ1-42) and (Intensity ratio of oxygenation of aggregated nucleoside phosphorylase)/(Intensity ratio of oxygenation of non-aggregated nucleoside phosphorylase).

somatostatin = somatostatin (Homo sapiens, UniProt P61278); assay: Selectivity of oxygenation reaction, somatostatin (Example 4); assay type: biochemical; set-up: unit not given here; conditions: compound (1a) 20 mmol %, light 1 hour, 37° C.
Source text: as §1

Aβ1-42 oligomers [5] = molecular target: T1, Aβ1-42 oligomers; assay: Binding to Aβ1-42 oligomer by fluorescence assay (Example 6); conditions: 10 μM; oligomers prepared at 0° C. and room temperature, 24 hours
Protocol: (2) Compound (1a) (10 μM) was added to each of solutions containing two types of Aβ1-42 oligomers (0.5 μM) prepared by the incubation of Aβ1-42 (20 μM) in a phosphate buffer solution (10 mM, pH 7.4) at 0° C. and room temperature, respectively, for 24 hours, followed by the measurement of the fluorescence intensity of compound (1a).

α-synuclein = α-synuclein (Homo sapiens, UniProt P37840); assay: Oxygenation reaction of α-synuclein; assay type: biochemical
Source text: (§5) The reaction was monitored with a mass spectrometer (MALDI-TOF MS).

[6] = Fluorescence in glycerol/water mixed solvent; assay type: physicochemical; conditions: increasing glycerol concentration
β2-microglobulin = β2-microglobulin (Homo sapiens, UniProt P61769); assay: Oxygenation reaction of β2-microglobulin; assay type: biochemical
Source text: as §5

insulin = molecular target: T4, insulin (Homo sapiens, UniProt P01308); assay: Oxygenation reaction of insulin; assay type: biochemical
T4 construct: prepared by the incubation of insulin (400 μM) in a 25 mM hydrochloric acid solution
T4 sequence (P01308 25-54 limits assumed, species assumed): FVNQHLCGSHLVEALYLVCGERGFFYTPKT
T4 sequence (P01308 90-110 limits assumed, species assumed): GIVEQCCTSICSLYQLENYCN
Source text: as §3

methionine enkephalin [7] = molecular target: T5, methionine enkephalin (Homo sapiens, UniProt P01210); assay: Oxidation reaction of methionine enkephalin (Example 3); assay type: biochemical; conditions: light irradiation 1.5 hours, neutral buffer, 37° C.
Source text: as §1

aggregated Aβ1-42 [8] = molecular target: T6, aggregated Aβ1-42 (Homo sapiens, UniProt P05067); assay: Increase of the intensity ratio of oxygenation of aggregated Aβ1-42 (Example 5); assay type: biochemical; conditions: Aβ1-42 incubated 0, 1, 3, 6 hours; light 10 minutes, room temperature
T6 sequence (P05067 672-713 limits assumed): as the sequence (P05067 672-713 limits assumed) above
Protocol: as §3
Increase of the intensity ratio of oxygenation (%) was calculated according to (Intensity ratio of oxygenation of aggregated Aβ1-42 (incubated at 37° C. for the predetermined time))−(Intensity ratio of oxygenation of aggregated Aβ1-42 (incubated at 37° C. for 0 hours)).
The intensity ratio of oxygenation (%) was calculated according to (Total intensity of oxygen adducts)/((Intensity of non-oxygen adduct (native))+(Total intensity of oxygen adducts)).

methionine enkephalin [9] = molecular target: T5, methionine enkephalin; assay: Selectivity of oxygenation reaction, methionine enkephalin (Example 4); assay type: biochemical; set-up: unit not given here; conditions: compound (1a) 20 mmol %, light 1 hour, 37° C.
Source text: as §1

[10] = Oxidation reaction of benzoyl methionine in glycerol/water; conditions: aqueous solution containing glycerol, light irradiation
Source text: (§6) Then, the reaction was monitored with LC/MS (ESI-Q).

Absorption spectra = assay type: physicochemical
transthyretin = transthyretin (Homo sapiens, UniProt P02766); assay: Oxygenation reaction of transthyretin; assay type: biochemical
Source text: as §5

aggregated Aβ1-42 [11] = molecular target: T6, aggregated Aβ1-42; assay: Binding to aggregated Aβ1-42 by fluorescence assay (Example 5); conditions: 10 μM; Aβ1-42 incubated 0, 1, 3, 6 hours
Protocol: (2) Compound (1a) (10 μM) was added to each of solutions containing 4 types of aggregated Aβ1-42 (0.5 μM) prepared by the incubation of Aβ1-42 (20 μM) in a phosphate buffer solution (10 mM, pH 7.4) at 37° C. for 0, 1, 3, and 6 hours, respectively, followed by the measurement of the fluorescence intensity of compound (1a).

angiotensin IV [12] = molecular target: T2, angiotensin IV; assay: Selectivity of oxygenation reaction, angiotensin IV (Example 4); assay type: biochemical; set-up: unit not given here; conditions: compound (1a) 20 mmol %, light 1 hour, 37° C.
Source text: as §1

Aβ1-42 [13] = molecular target: T3, Aβ1-42; assay: Fluorescence spectra in the presence or absence of Aβ1-42; assay type: binding; conditions: Aβ1-42 20 μM, 37° C., 3 hours
nucleoside phosphorylase = assay: Oxygenation ratio of aggregated to non-aggregated nucleoside phosphorylase (Example 8); assay type: biochemical; conditions: 4 μM, pH 7.4, room temperature, light 10 minutes
Protocol: (1) A phosphate buffer solution (10 mM, pH 7.4) containing nucleoside phosphorylase (0.1 mg/mL) was incubated at 60° C. The degree of thermal aggregation was monitored using a fluorescence assay kit (Protein Stability and Aggregation Assay Kit (ProFoldin, Hudson, Mo., USA)).
as §5, §4

[14] = Singlet oxygen production in glycerol/water (furfuryl alcohol decrease); conditions: aqueous solution containing glycerol, light irradiation
Source text: as §6

amylin = molecular target: T7, amylin (Homo sapiens, UniProt P10997); assay: Oxidation reaction of amylin; assay type: biochemical
T7 construct: amylin, a hormone essential for glycemic control
T7 sequence (P10997 34-70 limits assumed): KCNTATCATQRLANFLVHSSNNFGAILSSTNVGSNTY
Protocol: as §1, §2

desacyl ghrelin = molecular target: T8, desacyl ghrelin (Homo sapiens, UniProt Q9UBU3); assay: Selectivity of oxygenation reaction, desacyl ghrelin (Example 4); assay type: biochemical; set-up: unit not given here; conditions: compound (1a) 20 mmol %, light 1 hour, 37° C.
T8 sequence (Q9UBU3 24-51 limits assumed): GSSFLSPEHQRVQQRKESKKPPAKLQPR
Source text: as §1

[15] = molecular target: Aβ coexisting with angiotensin IV and methionine enkephalin (Homo sapiens, UniProt P05067); assay: Oxygenation with Aβ coexisting with angiotensin IV and methionine enkephalin; assay type: biochemical
Sequence of Aβ coexisting with angiotensin IV and methionine enkephalin (P05067 672-713): as the sequence (P05067 672-713 limits assumed) above
Source text: as §1

Aβ1-42 oligomers [16] = molecular target: T1, Aβ1-42 oligomers; assay: Oxygenation of Aβ1-42 oligomer (Example 6); assay type: biochemical; conditions: 4 μM; light 10 minutes, room temperature
Protocol: (3) Compound (1a) (4 μM) was added to each of solutions containing two types of Aβ1-42 oligomers (0.5 μM) prepared by the incubation of Aβ1-42 (20 μM) in a phosphate buffer solution (10 mM, pH 7.4) at 0° C. and room temperature, respectively, for 24 hours, and the mixture was incubated at room temperature for 10 minutes under irradiation with LED (wavelength: 500 nm). Then, the reaction was monitored with a mass spectrometer (MALDI-TOF MS). The intensity ratio of oxygenation (%) was calculated according to (Total intensity of oxygen adducts)/((Intensity of non-oxygen adduct (native))+(Total intensity of oxygen adducts)).

Aβ1-42 [17] = molecular target: T3, Aβ1-42; assay: Oxygenation of Aβ1-42 in cell culture medium; assay type: biochemical; conditions: 50 mmol %, light 500 nm, 30 minutes, medium containing 0.1% horse serum
Source text: as §3

PC12 cells = assay type: cell-based, rat
Protocol: The solution was added at 50 μL/well to rat adrenal medulla-derived pheochromocytoma PC12 cells (purchased from RIKEN, Japan) inoculated to a poly-D-lysine-coated 96-well plate and similarly reacted. The reaction solution in each well was diluted with 50 μL of a Dulbecco's modified eagle's medium containing 0.1% horse serum (final concentration of Aβ: 10 μM) and then incubated at 37° C. for 48 hours in a 5% CO2 atmosphere. A live cell count measurement reagent SF containing WST-8 (10 μL; purchased from Nacalai Tesque, Inc.) was added to each well, and the mixture was incubated at 37° C. for 3 hours in a 5% CO2 atmosphere. Then, the cell viability was measured from absorbance at 450 nm (reference wavelength: 655 nm).

[18] = 20 μM, light 500 nm, 37° C., 30 minutes

fibril formation of Aβ1-42 oligomer (atomic force microscopy) (Aβ1-42 oligomers [1]; incubated for 6 hours): similarly suppressed
oxygenation of angiotensin IV (angiotensin IV [2]): ≤ 5%
oxygenation ratio (aggregated Aβ1-42 / non-aggregated Aβ1-42) (Aβ1-42 [4]): approximately 4.2
generation of an oxygenated form of somatostatin (somatostatin): ≤ 2
binding to Aβ1-42 oligomer (fluorescence) (Aβ1-42 oligomers [5]): binds to the Aβ1-42 oligomer
oxygenation of aggregated α-synuclein (α-synuclein; [18]): observed
progression of oxygenation of non-aggregated α-synuclein (α-synuclein; [18]): not observed
oxygenation of aggregated α-synuclein without light irradiation (α-synuclein; without light irradiation): not observed
oxygenation of aggregated β2-microglobulin (β2-microglobulin; [18]): observed
progression of oxygenation of non-aggregated β2-microglobulin (β2-microglobulin; [18]): not observed
oxygenation of aggregated β2-microglobulin without light irradiation (β2-microglobulin; without light irradiation): not observed
progression of oxygenation of aggregated insulin (insulin; [18]): observed
progression of oxygenation of non-aggregated insulin (insulin; [18]): not observed
oxygenation of aggregated insulin without light irradiation (insulin; without light irradiation): not observed
oxygenation of methionine enkephalin (methionine enkephalin [7]): ≤ 5%
generation of an oxygenated form of methionine enkephalin (methionine enkephalin [9]): ≤ 2
maximum absorption wavelength (Absorption spectra; 20 μM, phosphate buffer pH 7.4): 456 nm
shift of maximum absorption wavelength to longer wavelength than thioflavin T (Absorption spectra; compared with thioflavin T): approximately 50 nm
oxygenation of aggregated transthyretin (transthyretin; [18]): observed
progression of oxygenation of non-aggregated transthyretin (transthyretin; [18]): not observed
oxygenation of aggregated transthyretin without light irradiation (transthyretin; without light irradiation): not observed
generation of an oxygenated form of angiotensin IV (angiotensin IV [12]): ≤ 2
oxygenation ratio (aggregated / non-aggregated nucleoside phosphorylase) (nucleoside phosphorylase): approximately 1.2
generation of an oxygenated form of desacyl ghrelin (desacyl ghrelin): ≤ 2
SMILES: C[n+]1c(-c2cc3c4c(c2)CCCN4CCC3)sc2cc(Br)ccc21 [1a]
increase in cross-β structure of Aβ1-42 oligomer (Nile Red fluorescence) (Aβ1-42 oligomers [1]; 4 μM, light 1 hour, then 37° C.): suppress increase in the cross-β structure of the Aβ1-42 oligomer
oxidation efficiency of Aβ (Aβ1-42 [3]; 100 mmol %, light 500 nm, pH 7.4, 37° C., compared with thioflavin T): remarkably high as compared with thioflavin T
oxygenation site in Aβ1-42 (Aβ1-42 [3]; amino acid analysis and LC/MS/MS analysis): remarkably at His-13 and His-14 residues, and oxygenation also proceeds slightly at Met-35 residue
fluorescence intensity in glycerol/water mixed solvent [6]: increased with increase in the concentration of highly viscous glycerol
increase of the intensity ratio of oxygenation (aggregated Aβ1-42 [8]): increase of the intensity ratio of oxygenation was observed with increase in the fluorescence intensity of thioflavin T
oxidation of benzoyl methionine [10]: oxidized in a glycerol concentration-dependent manner
binding to aggregated Aβ1-42 (fluorescence intensity) (aggregated Aβ1-42 [11]): bind to the cross-β-sheet structure of aggregated Aβ1-42
fluorescence in the presence of Aβ compared with absence of Aβ (Aβ1-42 [13]): remarkably high as compared with that in the absence of Aβ
production of singlet oxygen (decrease in furfuryl alcohol) [14]: production of singlet oxygen, with increase in the concentration of glycerol was observed
selectivity for aggregated over monomeric amylin (amylin): selectively reacts with aggregated amylin without acting on monomeric amylin
oxygenation of amylin (amylin; 100 mmol %, light 500 nm, pH 7.4, 37° C.): time-dependent oxygenation at His-18 residue was observed
oxygenation of amylin in a monomeric state (amylin; pre-incubation 0 h): Only a trace amount of an oxygenated form was detected
oxygenation of amylin aggregated in advance (amylin; pre-incubation 1 hour and 2 hours): the ratio of oxygenized amylin was elevated
selectivity of oxygenation with coexisting substrates [15]: highly selective oxygenation of Aβ was observed
oxygenation of Aβ1-42 oligomers (Aβ1-42 oligomers [16]): able to catalyze the oxygenation of both of the Aβ1-42 oligomers

oxygenation of Aβ in a cell medium (Aβ1-42 [17]): approximately 40%
SMILES: CC(C)C[C@@H](NC(=O)[C@@H](CCCCN)NC(=O)CCCCCN1CCCc2cc(-c3sc4cc(Br)ccc4[n+]3C)ccc21)C(=O)N[C@@H](C(=O)N[C@H](Cc1ccc(-c2ccccc2)cc1)C(=O)N[C@H](Cc1ccccc1)C(=O)O)C(C)C [1e] (X1-[dK][dL][dV][dBip][dF]-OH)
phototoxicity (cell viability) (PC12 cells): no phototoxicity
